Results as given in BindingDB's records for doi:10.1016/j.bmcl.2005.03.034 (Glaxosmithkline, 2005).
pIC50: −log10 of the molar value.

Biological target: Vascular endothelial growth factor receptor 2 (Homo sapiens, UniProt P35968)
Test: Homogeneous Time-resolved Fluorescence (HTRF) Assay
From the text: The assay was using baculovirus-expressed recombinant protein kinase purified as the intracellular domain fused by GST tag, interacting with biotinylated peptide substrate. HTRF is based on the proximity of europium cryptate (donor fluorophore)-labeled antiphosphotyrosine and streptavidin labeled with APC(allophycocyanin), which have been brought together by a binding reaction. When the two entities come into close proximity and upon excitation, energy transfer occurs and APC re-emits at 665 nm.

Chain of Vascular endothelial growth factor receptor 2 (P35968 whole entry): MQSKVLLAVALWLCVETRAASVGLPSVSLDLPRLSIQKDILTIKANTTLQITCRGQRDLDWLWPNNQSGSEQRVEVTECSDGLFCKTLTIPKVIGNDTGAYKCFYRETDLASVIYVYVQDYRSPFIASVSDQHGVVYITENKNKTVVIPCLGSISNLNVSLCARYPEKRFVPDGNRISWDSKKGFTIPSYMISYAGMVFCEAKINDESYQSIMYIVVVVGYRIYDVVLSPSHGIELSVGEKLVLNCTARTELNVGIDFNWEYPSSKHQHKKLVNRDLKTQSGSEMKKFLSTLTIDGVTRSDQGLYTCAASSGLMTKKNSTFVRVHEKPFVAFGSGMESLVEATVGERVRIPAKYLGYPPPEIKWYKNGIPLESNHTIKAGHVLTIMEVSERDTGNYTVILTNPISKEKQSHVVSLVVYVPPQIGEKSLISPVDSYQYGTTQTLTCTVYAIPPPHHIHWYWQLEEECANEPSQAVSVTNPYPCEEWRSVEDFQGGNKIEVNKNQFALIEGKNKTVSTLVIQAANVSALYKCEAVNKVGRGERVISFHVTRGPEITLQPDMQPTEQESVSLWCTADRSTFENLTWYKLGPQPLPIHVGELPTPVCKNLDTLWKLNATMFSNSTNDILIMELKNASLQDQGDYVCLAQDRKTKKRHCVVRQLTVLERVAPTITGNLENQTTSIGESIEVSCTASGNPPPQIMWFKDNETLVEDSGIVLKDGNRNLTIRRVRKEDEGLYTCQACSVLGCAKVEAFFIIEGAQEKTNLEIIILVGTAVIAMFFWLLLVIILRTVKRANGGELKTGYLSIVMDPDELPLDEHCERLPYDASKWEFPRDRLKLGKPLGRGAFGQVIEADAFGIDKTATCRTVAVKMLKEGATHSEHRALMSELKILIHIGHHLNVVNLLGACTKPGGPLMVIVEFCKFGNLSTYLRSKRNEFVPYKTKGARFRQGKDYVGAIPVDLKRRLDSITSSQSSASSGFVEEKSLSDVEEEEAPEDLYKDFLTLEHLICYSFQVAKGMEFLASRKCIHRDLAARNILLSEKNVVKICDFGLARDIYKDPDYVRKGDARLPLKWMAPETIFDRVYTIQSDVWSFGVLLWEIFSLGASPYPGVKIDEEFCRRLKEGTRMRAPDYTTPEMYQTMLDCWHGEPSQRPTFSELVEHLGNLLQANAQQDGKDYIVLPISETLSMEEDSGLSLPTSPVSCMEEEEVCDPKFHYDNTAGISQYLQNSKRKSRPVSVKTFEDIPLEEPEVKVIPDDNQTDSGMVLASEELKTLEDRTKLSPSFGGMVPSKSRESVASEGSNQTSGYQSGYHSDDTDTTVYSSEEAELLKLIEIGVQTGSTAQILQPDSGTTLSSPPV

Compound: CN(c1ccc(NC(=O)Nc2ccccc2)cc1)c1ccnc(Nc2cccc(CS(C)(=O)=O)c2)n1 [3-{4-[(2-{[3-(methanesulfonylmethyl)phenyl]amino}pyrimidin-4-yl)(methyl)amino]phenyl}-1-phenylurea]
- pIC50: 7.74

Compound: CN(c1ccc(NC(=S)Nc2ccccc2)cc1)c1ccnc(Nc2cccc(CS(C)(=O)=O)c2)n1 [3-{4-[(2-{[3-(methanesulfonylmethyl)phenyl]amino}pyrimidin-4-yl)(methyl)amino]phenyl}-1-phenylthiourea]
- pIC50: 6.93

Compound: CN(c1ccc(NC(=N)Nc2ccccc2)cc1)c1ccnc(Nc2cccc(CS(C)(=O)=O)c2)n1 [1-{4-[(2-{[3-(methanesulfonylmethyl)phenyl]amino}pyrimidin-4-yl)(methyl)amino]phenyl}benzeneguanidine]
- pIC50: 6.49

Compound: CN(c1ccc(NC(=O)Oc2ccccc2)cc1)c1ccnc(Nc2cccc(CS(C)(=O)=O)c2)n1 [phenyl N-{4-[(2-{[3-(methanesulfonylmethyl)phenyl]amino}pyrimidin-4-yl)(methyl)amino]phenyl}carbamate]
- pIC50: 7.02

Compound: CN(c1ccc(NC(=O)Cc2ccccc2)cc1)c1ccnc(Nc2cccc(CS(C)(=O)=O)c2)n1 [N-{4-[(2-{[3-(methanesulfonylmethyl)phenyl]amino}pyrimidin-4-yl)(methyl)amino]phenyl}-2-phenylacetamide]
- pIC50: 6.75

Compound: CN(c1ccc(NS(=O)(=O)Cc2ccccc2)cc1)c1ccnc(Nc2cccc(CS(C)(=O)=O)c2)n1 [N-{4-[(2-{[3-(methanesulfonylmethyl)phenyl]amino}pyrimidin-4-yl)(methyl)amino]phenyl}-1-phenylmethanesulfonamide]
- pIC50: 6.57

Compound: CN(c1ccc(NC(=O)Nc2ccccc2)cc1)c1ccnc(Nc2cccc(S(N)(=O)=O)c2)n1 [3-{4-[methyl({2-[(3-sulfamoylphenyl)amino]pyrimidin-4-yl})amino]phenyl}-1-phenylurea]
- pIC50: 8.30
